These are literature values, as cited in patent US20240016760A1, “Multivitamin” (priority 2022, published 2024).

Series [1] has as its system CFTR protein. Particulars: patients with CF.
For series [2], the target named is CFTR Chloride channels (Homo sapiens, UniProt P13569). Particulars: increase from zero, at the appropriate concentrations.
Sequence of CFTR Chloride channels (P13569 whole entry): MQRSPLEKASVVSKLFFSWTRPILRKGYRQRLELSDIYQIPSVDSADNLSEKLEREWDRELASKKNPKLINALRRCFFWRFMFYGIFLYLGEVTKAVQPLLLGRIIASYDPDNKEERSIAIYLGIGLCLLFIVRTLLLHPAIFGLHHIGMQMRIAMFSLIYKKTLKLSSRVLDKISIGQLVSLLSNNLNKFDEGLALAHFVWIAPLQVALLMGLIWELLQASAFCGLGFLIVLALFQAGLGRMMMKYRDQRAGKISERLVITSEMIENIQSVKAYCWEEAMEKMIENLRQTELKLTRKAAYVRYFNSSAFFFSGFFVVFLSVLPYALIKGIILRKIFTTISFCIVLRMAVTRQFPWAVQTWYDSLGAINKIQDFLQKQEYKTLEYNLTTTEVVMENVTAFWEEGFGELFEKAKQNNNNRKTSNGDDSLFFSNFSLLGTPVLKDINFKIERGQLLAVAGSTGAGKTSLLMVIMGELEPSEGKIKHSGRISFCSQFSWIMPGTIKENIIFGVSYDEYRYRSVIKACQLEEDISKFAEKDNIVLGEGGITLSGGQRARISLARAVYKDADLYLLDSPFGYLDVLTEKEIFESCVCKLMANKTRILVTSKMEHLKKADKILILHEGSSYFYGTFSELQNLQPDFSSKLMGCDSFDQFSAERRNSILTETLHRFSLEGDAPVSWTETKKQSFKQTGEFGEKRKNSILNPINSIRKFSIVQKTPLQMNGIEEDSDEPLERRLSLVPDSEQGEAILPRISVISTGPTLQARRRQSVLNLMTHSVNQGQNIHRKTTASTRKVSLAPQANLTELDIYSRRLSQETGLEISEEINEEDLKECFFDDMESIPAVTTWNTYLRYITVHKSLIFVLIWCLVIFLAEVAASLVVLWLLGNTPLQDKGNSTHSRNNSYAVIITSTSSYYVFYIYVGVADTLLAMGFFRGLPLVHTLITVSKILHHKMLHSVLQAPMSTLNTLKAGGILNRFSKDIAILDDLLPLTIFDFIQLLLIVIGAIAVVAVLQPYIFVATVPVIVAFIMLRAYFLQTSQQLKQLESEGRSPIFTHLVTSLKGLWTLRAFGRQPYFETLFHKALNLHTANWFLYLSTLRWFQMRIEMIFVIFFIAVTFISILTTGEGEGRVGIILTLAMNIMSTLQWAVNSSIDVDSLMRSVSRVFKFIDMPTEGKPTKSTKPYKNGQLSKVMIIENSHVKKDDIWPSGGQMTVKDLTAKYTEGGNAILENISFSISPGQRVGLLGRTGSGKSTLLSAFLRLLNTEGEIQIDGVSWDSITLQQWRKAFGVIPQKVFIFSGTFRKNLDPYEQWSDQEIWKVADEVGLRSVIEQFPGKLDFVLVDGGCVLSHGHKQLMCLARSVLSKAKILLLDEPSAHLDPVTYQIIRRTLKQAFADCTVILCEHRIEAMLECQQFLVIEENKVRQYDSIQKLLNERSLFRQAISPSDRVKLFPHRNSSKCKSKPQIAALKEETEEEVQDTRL

In the case of `CC(C)(C)c1cc(C(C)(C)C)c(NC(=O)c2c[nH]c3ccccc3c2=O)cc1O` [Ivacaftor, ivacaftor], in series [1], the “average increase in lung function (as measured by FEV1)” value is recorded as about 2%. Turning to `O=C1O[C@H]([C@@H](O)CO)C(O)=C1O` [vitamin C], the “average open probability of CFTR Chloride channels” value in series [2] was 0.21 (+0.08).
